# Laboratory results reported in patent publication US20200392150A1, “Diaryl-B-Lactam Compound and Preparation Method and Pharmaceutical Use Thereof” (Fudan University, priority 2016, published 2020).
# pIC50: −log10 of the molar value. “Also recorded” adds a separate entry of the source.
# Legend:
# KM mice = assay: Acute toxicity assay; format: in vivo; settings: single i.p. injection
# Protocol: (§1) KM mice were housed individually in a specific pathogen free facility. Groups of mice (n=10 per group, half male and half female) were injected intraperitoneally once with various dosages of 69 (95, 70, 50, 35, 25 mg/kg), 70 (500, 425, 350, 275, 200 mg/kg), 97 (275, 200, 150, 125 and 100 mg/kg) or vehicle (8.3% cremohorp EL and 8.3% alcohol in PBS) as negative control, respectively. 69, 70 and 97 was dissolved in cremeohore EL and alcohol mixture (1:1, v/v) and further diluted with PBS (1:5, v/v). The death of mice were monitored daily and recorded up to 14 days after injection.
# Acute toxicity assay = format: in vivo; settings: both sexes, mouse, in vivo, ip; KM mice, single intraperitoneal injection, 14 days
# Protocol: as §1
# A2780 cells xenograft = assay: Xenografts tumor growth assay in nude mice; format: in vivo, Balb/c nude mice; settings: i.p. once every 2 days, 69 7.5 mg/kg, 70 12.5 mg/kg, 97 4 or 8 mg/kg
# Protocol: 6 weeks old female Balb/c nude mice were purchased from Shanghai Slac Laboratory Animal Co. Ltd. (Shanghai, China). 2*10^6 A2780 cells suspended in 0.2 mL PBS per mouse was injected subcutaneously into the nude mice. […] Administration of agents or vehicle, or agents and measurement of tumor volumes with a digital caliper was done once every 2 days. Tumor volumes were calculated as volume=shortest diameter (W)^2*longest diameter (L)*0.52. When the average tumor volumes of vehicle treated group reached 2000 mm^3 in diameter, the mice were sacrificed and the tumors were isolated and weighed. Visceral organs of the mice as well as solid tumors were further analyzed by H&E staining.
# tubulin in Hela cells = assay: Immunoblotting analysis of polymerized/depolymerized tubulin; format: cell-based, human; settings: 6 h
# Protocol: After being treated with diluent (0.2% DMSO), tested compound, CA-4 or PTX for 6 h, Hela cells were lysed with microtubulestabilizing buffer, containing 100 mM PIPES, pH 6.8, 1 mM MgCl2, 2 mM EGTA, 0.5% NP-40, 2 M glycerol, 5 μM PTX and protease inhibitors cocktail (Roche), and the lysate was centrifuged at 15,000 rpm for 15 min. Supernatant containing depolymerized tubulin was carefully collected, whereas pellet (polymerized tubulin) was further dissolved in SDS-lysis buffer (Beyotime, China). Equal amounts of supernatant and dissolved pellet were subjected to immunoblotting analysis as described above using atubulin antibody (Proteintech).
# SKOV3 = assay: In vitro cell growth inhibition assay (MTT); format: cell-based, human; settings: SK-OV-3; SKOV-3 human ovarian cancer cell line, 48 h, MTT; read-out: IC50 SKOV3
# Summary of the method: (§2)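 5000 cells/well, overnight attachment; compounds 48 h (vehicle 0.2% DMSO); MTT 0.5 mg/mL, 4 h, 37° C; formazan in DMSO; A540. IC50 from growth inhibition rates.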
# MDA-MB-231 = assay: In vitro cell growth inhibition assay (MTT); format: cell-based, human; settings: MDA-MB-231 human breast cancer cell line, 48 h, MTT; read-out: IC50 MDA-MB-231
# Summary of the method: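 IC50 values come from growth inhibition rates calculated from MTT absorbance at 540 nm. Compound exposure lasted 48 h on cells plated at 5000 per well.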
# A2780 = assay: In vitro cell growth inhibition assay (MTT); format: cell-based, human; settings: A2780 human ovarian cancer cell line, 48 h, MTT; read-out: IC50 A2780
# Summary of the method: as §2
# Hela = assay: In vitro cell growth inhibition assay (MTT); format: cell-based, human; settings: Hela human cervical cancer cell line, 48 h, MTT; read-out: IC50 Hela
# Summary of the method: as §2
compound,measurement,setting,value
"COc1ccc([C@H]2[C@@H](C)C(=O)N2c2cc(OC)c(OC)c(OC)c2)cc1O [Compound 70, (3R,4R)-4-(3-hydroxy-4-methoxyphenyl)-3-methyl-1-(3,4,5-trimethoxyphenyl)azetidin-2-one]",No. of dead mice 5-14 days,KM mice; 200 mg/kg,0
same,No. of dead mice 1 day,KM mice; 200 mg/kg,0
same,No. of dead mice 2 days,KM mice; 200 mg/kg,0
same,No. of dead mice 3 days,KM mice; 200 mg/kg,0
same,No. of dead mice 4 days,KM mice; 200 mg/kg,0
same,Survival (%) on day 14,KM mice; 200 mg/kg,100%
same,Total death,KM mice; 200 mg/kg,0
same,No. of dead mice 5-14 days,KM mice; 275 mg/kg,1
same,No. of dead mice 1 day,KM mice; 275 mg/kg,0
same,No. of dead mice 2 days,KM mice; 275 mg/kg,0
same,No. of dead mice 3 days,KM mice; 275 mg/kg,0
same,No. of dead mice 4 days,KM mice; 275 mg/kg,1
same,Survival (%) on day 14,KM mice; 275 mg/kg,80%
same,Total death,KM mice; 275 mg/kg,2
same,No. of dead mice 5-14 days,KM mice; 350 mg/kg,0
same,No. of dead mice 1 day,KM mice; 350 mg/kg,0
same,No. of dead mice 2 days,KM mice; 350 mg/kg,0
same,No. of dead mice 3 days,KM mice; 350 mg/kg,1
same,No. of dead mice 4 days,KM mice; 350 mg/kg,0
same,Survival (%) on day 14,KM mice; 350 mg/kg,90%
same,Total death,KM mice; 350 mg/kg,1
same,No. of dead mice 5-14 days,KM mice; 425 mg/kg,0
same,No. of dead mice 1 day,KM mice; 425 mg/kg,0
same,No. of dead mice 2 days,KM mice; 425 mg/kg,0
same,No. of dead mice 3 days,KM mice; 425 mg/kg,3
same,No. of dead mice 4 days,KM mice; 425 mg/kg,0
same,Survival (%) on day 14,KM mice; 425 mg/kg,70%
same,Total death,KM mice; 425 mg/kg,3
same,No. of dead mice 5-14 days,KM mice; 500 mg/kg,0
same,No. of dead mice 1 day,KM mice; 500 mg/kg,0
same,No. of dead mice 2 days,KM mice; 500 mg/kg,0
same,No. of dead mice 3 days,KM mice; 500 mg/kg,4
same,No. of dead mice 4 days,KM mice; 500 mg/kg,0
same,Survival (%) on day 14,KM mice; 500 mg/kg,60%
same,Total death,KM mice; 500 mg/kg,4
same,LD50 at 14 days,Acute toxicity assay,> 500 mg/kg
same,"H&E staining of liver, kidney and spleen",A2780 cells xenograft,"no abnormal areas are observed in tissue staining of liver, kidney and spleen; also recorded: no detectable abnormalities were observed in liver, kidney and spleen"
same,H&E staining of tumor sections,A2780 cells xenograft,cause tumor tissue to produce necrotic areas; also recorded: extensive areas of necrosis or cell death
same,mouse body weight,A2780 cells xenograft,no significant influence on mouse body weight; also recorded: no significant weight loss observed
same,tumor growth in vivo,A2780 cells xenograft,significantly inhibit tumor growth in vivo; also recorded: anti-tumor activities in vivo
same,polymerized tubulin (immunoblotting),tubulin in Hela cells,significantly inhibit tubulin aggregation; also recorded: dramatically reduction of polymerized tubulin
same,pIC50,SKOV3,7.29
same,pIC50,MDA-MB-231,7.17
same,pIC50,A2780,7.46
same,pIC50,Hela,7.13
